In the Deep4Chem optical property database one finds emission maximum data, which are given here for 36 compounds.

A short description of the series: solvent given as SMILES.

Regarding `CCC1(CC)c2cc(B(c3c(C)cc(C)cc3C)c3c(C)cc(C)cc3C)ccc2-c2c1c1c(c3c2C(CC)(CC)c2cc(B(c4c(C)cc(C)cc4C)c4c(C)cc(C)cc4C)ccc2-3)C(CC)(CC)c2cc(B(c3c(C)cc(C)cc3C)c3c(C)cc(C)cc3C)ccc2-1`, the emission maximum was found to be 386 nm (in C1CCOC1); 403 nm (in CC#N); 396 nm (in CC(C)=O); 382 nm (in CCCCCC); 385 nm (in Cc1ccccc1).
`COc1cc(OC)cc(C2=C3C(C)=C(I)C(C)=[N+]3[B-](F)(F)n3c(/C=C/c4ccsc4)c(I)c(C)c32)c1`: the emission maximum is, setting by setting: (in C1CCOC1) 610 nm; (in CS(C)=O) 621 nm; (in ClCCl) 610 nm.
Take `C#CCn1c2ccccc2c2cc(/C=C/C3=[N+]4C(=C(c5ccc(I)cc5)c5c(C)c(Cl)c(/C=C/c6ccc7c(c6)c6ccccc6n7CC#C)n5[B-]4(F)F)C(C)=C3Cl)ccc21`: the emission maximum is 731 nm (in CC#N), 749 nm (in CS(C)=O) and 730 nm (in ClC(Cl)Cl).
The compound `F[B-]1(F)OC(c2ccccc2)=Cc2c3ccccc3cc[n+]21` had an emission maximum (in ClC(Cl)Cl) of 463.2 nm.
With `c1ccc(-c2cc3cccc[n+]3[b-]3ccc(-c4cc[b-]5c(c4)c(-c4ccccc4)cc4cccc[n+]54)cc32)cc1`, the emission maximum (in C1CCCCC1) stood at 568 nm.
`c1ccc2c(c1)Oc1ccccc1C21c2cc(-c3ccc4ccc5cccc6ccc3c4c56)ccc2-c2ccc(-c3ccc4ccc5cccc6ccc3c4c56)cc21` gave an emission maximum (in ClC(Cl)Cl) of 422 nm.
Compound `Cc1ccc(NC(=O)c2sc(Br)nc2C)cc1` returned an emission maximum (in C1CCOC1) of 407.5 nm; an emission maximum (in CC#N) of 399.5 nm; an emission maximum (in CCCCCC) of 399 nm; an emission maximum (in CCOC(C)=O) of 404.5 nm; an emission maximum (in CN(C)C=O) of 451 nm; an emission maximum (in CO) of 403 nm. Also, the emission maximum was found to be 401.5 nm (in CS(C)=O) and 412.4 nm (in ClC(Cl)Cl).
Turning to `C(=C1c2ccccc2CCc2ccccc21)c1ccc(-c2cc(-c3ccc(C=C4c5ccccc5CCc5ccccc54)cc3)cc(-c3ccc(C=C4c5ccccc5CCc5ccccc54)cc3)c2)cc1`, for the setting “in C1CCOC1”, the emission maximum is reported as 403 nm.
In turn, `CCOC(CN1C(=O)C2=C(c3cccs3)N(CC(OCC)OCC)C(=O)C2=C1c1cccs1)OCC` returned an emission maximum (in ClC(Cl)Cl) of 557 nm.
As to `O=S1(=O)c2ccccc2C2(c3cc(-c4ccc(N(c5ccccc5)c5ccccc5)cc4)ccc3-c3ccc(-c4ccc(N(c5ccccc5)c5ccccc5)cc4)cc32)c2ccccc21`, the emission maximum runs as follows: (in ClCCl) 460 nm; (in c1cc(-n2c3ccccc3c3ccccc32)cc(-n2c3ccccc3c3ccccc32)c1) 448 nm.
On to `N#Cc1cc(-c2ccc(F)cc2)cnc1O`, for which the emission maximum was 422 nm (in C1COCCO1); 425 nm (in CC1CCCCC1); 423 nm (in CC#N); 424 nm (in CC(C)O); 425 nm (in CCO); 425 nm (in CO). Also, the emission maximum reads like this: (in CS(C)=O) 427 nm; (in ClC(Cl)(Cl)Cl) 429 nm; (in O) 425 nm.
Consider `CC(C)[Si](C#Cc1c2cc3ccccc3cc2c(C#Cc2ccccc2)c2cc3ccccc3cc12)(C(C)C)C(C)C`, for which, under “in ClCCl”, the emission maximum amounted to 661 nm.
Compound `CCCCCCCCC1(CCCCCCCC)c2cc(-c3ccc(C(F)(F)F)cc3)ccc2-c2ccc(N(c3ccc(-n4c5ccccc5c5ccccc54)cc3)c3ccc4c(c3)C(CCCCCCCC)(CCCCCCCC)c3cc(-c5ccc(C(F)(F)F)cc5)ccc3-4)cc21` registered an emission maximum (in C1CCOC1) of 455 nm; an emission maximum (in C1COCCO1) of 434 nm; an emission maximum (in CC#N) of 495 nm; an emission maximum (in CC(C)=O) of 477 nm; an emission maximum (in CCCCCC) of 416 nm; an emission maximum (in CCCCOCCCC) of 425 nm. The emission maximum runs as follows: (in CCN(CC)CC) 423 nm; (in CCOC(C)=O) 450 nm; (in CCOCC) 432 nm; (in CN(C)C=O) 493 nm; (in CS(C)=O) 486 nm; (in Cc1ccccc1) 427 nm. Also, the emission maximum is, setting by setting: (in ClC(Cl)Cl) 445 nm; (in ClCCl) 465 nm; (in c1ccccc1) 428 nm.
Compound `N#Cc1ccc2cc(C#N)c3ccc4ccccc4c3c2c1` came in with an emission maximum (in ClC(Cl)Cl) of 420 nm.
For the compound `COCCOCCOc1cc(C=O)c(OCCOCCOC)cc1C=O`, the emission maximum is, setting by setting: (in CC(C)(C)O) 478 nm; (in CC(C)CO) 481 nm; (in CC(C)O) 481 nm; (in CCCCO) 467 nm; (in CCCO) 464 nm; (in CCO) 464 nm. The emission maximum is, setting by setting: (in CN(C)C=O) 466 nm; (in CNC=O) 450 nm; (in CO) 466 nm; (in NC=O) 458 nm; (in O) 496 nm.
In the case of `CC(=O)c1ccc(-c2cc3c(ccc4sccc43)s2)cc1`, under “in ClCCl”, the emission maximum came to 430 nm.
For `CC1(C)c2ccccc2N(c2ccccc2)c2ccc(-c3nc(-c4ccccc4)nc(-c4ccccc4)n3)cc21`, the emission maximum is, setting by setting: (in Cc1ccccc1) 430.68 nm; (in O=P(c1ccccc1)(c1ccccc1)c1ccccc1Oc1ccccc1P(=O)(c1ccccc1)c1ccccc1) 452 nm.
Consider `CCCCCn1c2cc(/C=C/c3ccc(N(c4ccccc4)c4ccccc4)cc3)ccc2c2ccc(/C=C/c3ccc(N(c4ccccc4)c4ccccc4)cc3)cc21`, for which the emission maximum (in Cc1ccccc1) is recorded as 451 nm.
For the compound `COc1nc(Nc2cc3ccc4cccc5ccc(c2)c3c45)nc(OC)n1`, the emission maximum reads like this: (in CC#N) 393 nm; (in CCCCOCCCC) 393 nm; (in CO) 392 nm.
For the setting “in ClCCl”, `CCOC(=O)CCCCCn1c2ccc(N)cc2c(=O)c2cc3c(cc21)c(=O)c1cc(N)ccc1n3CCCCCC(=O)OCC` returned an emission maximum of 608 nm.
In turn, `Cc1oc2c(Cl)cc3c(C)cc(=O)oc3c2c1C` displayed an emission maximum (in C1CCCCC1) of 403 nm; an emission maximum (in C1COCCO1) of 416 nm; an emission maximum (in CC#N) of 431 nm; an emission maximum (in CCO) of 440 nm; an emission maximum (in OCC(F)(F)F) of 469 nm.
With `O=C([O-])c1ccccc1C1=c2cc3c4c(c2Oc2c1cc1c5c2CCCN5CCC1)CCC[N+]=4CCC3`, the emission maximum runs as follows: (in CC#N) 603 nm; (in CCO) 593 nm; (in CN(C)C=O) 608 nm; (in O) 604 nm.
Consider `Cc1ccc(/C=C(\c2ccccc2)c2nc3ccccc3s2)cc1`, for which the emission maximum came to 380 nm (in C1CCCCC1) and 410 nm (in CO).
`COc1ccc(C2CC(=O)Oc3c2c2nc4ccccc4nc2c2ccccc32)cc1` (stereo unspecified) returned an emission maximum (in ClC(Cl)Cl) of 449 nm.
`Cc1ccc2nc3c(=O)[nH]c(=O)[nH]c3nc2c1C` yielded an emission maximum (in CC#N) of 461 nm.
Where the note is “in ClC(Cl)Cl”, `COc1ccc2c(C=C(C#N)C#N)cc3ccc4cc(C=C(C#N)C#N)c5ccc(OC)cc5c4c3c2c1` displayed an emission maximum of 545 nm.
`CCOC(=O)C1=C(C)NC2=C(C(=O)c3ccccc32)C1c1ccc(N(C)C)cc1` (stereo unspecified): the emission maximum stood at 497 nm (in C1CCOC1); 490 nm (in C1COCCO1); 542 nm (in CC#N); 559 nm (in CCO); 540 nm (in CN(C)C=O); 561 nm (in CO). Also, the emission maximum came to 548 nm (in CS(C)=O), 475 nm (in ClC(Cl)(Cl)Cl), 532 nm (in ClC(Cl)Cl) and 530 nm (in ClCCl).
In turn, `N[C@@H](Cn1nnc2cc(-c3ccc(N4CCOCC4)cc3)ccc21)C(=O)O` had an emission maximum (in CO) of 384 nm.
`CCCCCCCCCCCCCCOc1ccc(C#Cc2cc3nc4c(OCCCCCCCCCCCC)cc5c6cc(OCCCCCCCCCCCC)c(OCCCCCCCCCCCC)cc6c6cc(OCCCCCCCCCCCC)c(OCCCCCCCCCCCC)cc6c5c4nc3cc2C#Cc2ccc(OCCCCCCCCCCCCCC)cc2)cc1` had an emission maximum (in ClC(Cl)Cl) of 663 nm.
Compound `CC1(C)C(/C=C/C2=C(Cl)C(=C/C=C3/N(Cc4ccc(F)cc4)c4ccccc4C3(C)C)/CCC2)=[N+](Cc2ccc(F)cc2)c2ccccc21` registered an emission maximum (in CO) of 809 nm.
The compound `CN(C)c1ccc(/C=C/c2nc(N3CCOCC3)c3c([n+]2[O-])CCCC3)cc1` had an emission maximum (in ClCCl) of 523 nm.
`COc1ccc(C2=C(Br)C(c3ccccc3)=[N+]3C2=Nc2c(-c4ccc(OC)cc4)c(Br)c(-c4ccccc4)n2[B-]3(F)F)cc1` came in with an emission maximum (in Cc1ccccc1) of 691 nm.
In turn, `COc1ccccc1-n1nc(C#N)c(N2CCCC2)n1` came in with an emission maximum (in CC#N) of 418 nm.
Take `Cc1cc(C(F)(F)F)nc2c1ccc1nc(-c3ccc(Cl)cc3)cn12`: the emission maximum by setting is: (in CC#N) 463 nm; (in CCCCCC) 439 nm; (in CCCCOC(C)=O) 455 nm; (in CCOC(C)=O) 457 nm; (in CO) 459 nm; (in Cc1ccccc1) 455 nm. Also, the emission maximum by setting is: (in ClC(Cl)Cl) 452 nm; (in ClCCl) 455 nm; (in c1ccccc1) 455 nm.
`CCCCCCc1ccc2c3c(ccc2c1)O[B-](c1ccccc1)(c1ccccc1)[N+](c1ccc([N+]2=Cc4c(ccc5cc(CCCCCC)ccc45)O[B-]2(c2ccccc2)c2ccccc2)cc1)=C3`: the emission maximum reads like this: (in C1CCOC1) 568 nm; (in CC#N) 561 nm; (in Cc1ccccc1) 569 nm; (in ClCCl) 568 nm.
On to `COC(=O)c1ccc(C2=C3C=CC(C)=[N+]3[B-](F)(F)n3c(C)ccc32)cc1`, for which the emission maximum came out at 533 nm (in C1CCCCC1); 536 nm (in C1CCOC1); 531 nm (in CC#N); 533 nm (in CCOC(C)=O); 533 nm (in CO); 538 nm (in Cc1ccccc1). The emission maximum (in ClC(Cl)Cl) is recorded as 538 nm.
